Measured values reported in paper PMC9719519, “Non-classical ferroptosis inhibition by a small molecule targeting PHB2” (Nature Communications, 2022).

How the values were obtained:
Test in all cases: biochemical
Parameters in all cases: Eurofins recombinant human kinase profiling, remaining kinase activity as % of control, 10 uM ATP
Details in all cases: ATP 10 uM; read-out: %Ctrl@10 μM
EphA1(h) = EphA1(h) (Homo sapiens, UniProt P21709)
Summary of the method: (§1)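 Activity measured in a commercial panel of 401 recombinant human protein kinases run as a kinase profiling service.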

CDK6/cyclinD3(h) = CDK6/cyclinD3(h) (Homo sapiens, UniProt Q00534)
Summary of the method: as §1

[1] = target: T1, PI3 Kinase (p110(H1047R)/p85)(h) (Homo sapiens, UniProt P42336, H1047R)
T1 construct: gene PIK3CA
Summary of the method: as §1

SAPK2a(T106M)(h) = target: T2, SAPK2a(T106M)(h) (Homo sapiens, UniProt Q16539, T106M)
T2 construct: gene MAPK14
Summary of the method: as §1

IGF-1R(h), activated = target: T3, IGF-1R(h), activated (Homo sapiens, UniProt P08069)
T3 construct: gene IGF1R
Summary of the method: as §1

Pim-2(h) = target: T4, Pim-2(h) (Homo sapiens, UniProt Q9P1W9)
T4 construct: gene PIM2
Summary of the method: as §1

FAK(h) = target: T5, FAK(h) (Homo sapiens, UniProt Q05397)
T5 construct: gene PTK2
Summary of the method: as §1

LKB1(h) = target: T6, LKB1(h) (Homo sapiens, UniProt Q15831)
T6 construct: gene STK11
T6 sequence (Q15831 whole entry): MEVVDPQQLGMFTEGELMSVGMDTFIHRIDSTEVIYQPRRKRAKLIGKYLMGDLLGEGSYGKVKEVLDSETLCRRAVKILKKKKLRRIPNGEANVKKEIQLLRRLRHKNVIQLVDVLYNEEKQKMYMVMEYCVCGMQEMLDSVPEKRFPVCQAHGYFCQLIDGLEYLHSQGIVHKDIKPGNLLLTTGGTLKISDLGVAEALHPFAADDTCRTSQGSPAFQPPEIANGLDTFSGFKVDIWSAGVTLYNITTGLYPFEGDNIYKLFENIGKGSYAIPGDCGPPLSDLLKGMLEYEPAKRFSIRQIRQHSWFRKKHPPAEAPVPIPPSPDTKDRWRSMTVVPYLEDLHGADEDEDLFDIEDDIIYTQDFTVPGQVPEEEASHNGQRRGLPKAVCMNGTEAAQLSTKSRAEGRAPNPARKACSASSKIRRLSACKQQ
T6 sequence (Q7RTN6 whole entry partner): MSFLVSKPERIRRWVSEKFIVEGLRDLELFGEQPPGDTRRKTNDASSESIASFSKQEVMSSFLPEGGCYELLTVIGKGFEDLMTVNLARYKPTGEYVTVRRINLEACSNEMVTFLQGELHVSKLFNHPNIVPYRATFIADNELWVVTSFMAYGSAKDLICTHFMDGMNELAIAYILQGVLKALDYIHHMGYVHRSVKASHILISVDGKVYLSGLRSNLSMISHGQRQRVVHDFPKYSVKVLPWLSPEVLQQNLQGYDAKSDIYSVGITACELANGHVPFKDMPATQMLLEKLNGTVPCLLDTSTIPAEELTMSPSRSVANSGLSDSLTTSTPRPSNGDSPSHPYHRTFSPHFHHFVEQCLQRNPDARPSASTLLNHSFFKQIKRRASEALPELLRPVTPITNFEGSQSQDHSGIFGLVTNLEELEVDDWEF
T6 sequence (Q9Y376 whole entry partner): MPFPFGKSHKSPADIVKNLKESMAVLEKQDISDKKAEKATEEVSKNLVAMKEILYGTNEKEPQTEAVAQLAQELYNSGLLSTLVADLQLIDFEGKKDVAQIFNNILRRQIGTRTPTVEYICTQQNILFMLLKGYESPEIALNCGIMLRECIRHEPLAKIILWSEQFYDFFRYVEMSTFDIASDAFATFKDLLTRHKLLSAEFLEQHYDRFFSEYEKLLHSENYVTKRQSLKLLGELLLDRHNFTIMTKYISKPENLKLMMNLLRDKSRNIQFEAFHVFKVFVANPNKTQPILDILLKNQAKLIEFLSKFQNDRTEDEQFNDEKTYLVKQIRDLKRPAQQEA
Summary of the method: as §1

TYK2(h) = TYK2(h) (Homo sapiens, UniProt P29597)
Summary of the method: as §1

BrSK1(h) = BrSK1(h) (Homo sapiens, UniProt Q8TDC3)
Chain of BrSK1(h) (Q8TDC3 whole entry): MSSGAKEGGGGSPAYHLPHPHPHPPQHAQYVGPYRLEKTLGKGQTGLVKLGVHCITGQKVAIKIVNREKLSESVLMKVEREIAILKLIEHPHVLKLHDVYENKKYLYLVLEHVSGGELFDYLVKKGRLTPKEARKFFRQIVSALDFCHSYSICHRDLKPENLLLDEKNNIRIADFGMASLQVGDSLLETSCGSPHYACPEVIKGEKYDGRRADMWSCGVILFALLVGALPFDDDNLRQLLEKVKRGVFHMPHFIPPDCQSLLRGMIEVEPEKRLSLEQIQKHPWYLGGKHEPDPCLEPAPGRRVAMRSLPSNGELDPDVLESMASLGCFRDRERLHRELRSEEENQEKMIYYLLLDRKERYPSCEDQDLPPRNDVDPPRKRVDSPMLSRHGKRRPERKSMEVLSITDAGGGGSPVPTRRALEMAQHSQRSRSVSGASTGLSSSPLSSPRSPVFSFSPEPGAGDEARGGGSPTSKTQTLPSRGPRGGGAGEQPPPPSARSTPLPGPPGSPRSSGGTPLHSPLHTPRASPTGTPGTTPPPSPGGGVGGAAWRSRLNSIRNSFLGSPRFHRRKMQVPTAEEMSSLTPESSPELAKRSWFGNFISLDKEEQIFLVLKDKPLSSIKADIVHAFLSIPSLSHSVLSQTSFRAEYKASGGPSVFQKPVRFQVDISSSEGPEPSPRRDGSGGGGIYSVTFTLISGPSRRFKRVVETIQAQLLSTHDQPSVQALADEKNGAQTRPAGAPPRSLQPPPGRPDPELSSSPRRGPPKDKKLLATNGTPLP
Summary of the method: as §1

Hck(h) activated = Hck(h) activated (Homo sapiens, UniProt P08631)
Summary of the method: as §1

PDGFRβ(h) = target: T7, PDGFRβ(h) (Homo sapiens, UniProt P09619)
T7 construct: gene PDGFRB
T7 sequence (P09619 whole entry): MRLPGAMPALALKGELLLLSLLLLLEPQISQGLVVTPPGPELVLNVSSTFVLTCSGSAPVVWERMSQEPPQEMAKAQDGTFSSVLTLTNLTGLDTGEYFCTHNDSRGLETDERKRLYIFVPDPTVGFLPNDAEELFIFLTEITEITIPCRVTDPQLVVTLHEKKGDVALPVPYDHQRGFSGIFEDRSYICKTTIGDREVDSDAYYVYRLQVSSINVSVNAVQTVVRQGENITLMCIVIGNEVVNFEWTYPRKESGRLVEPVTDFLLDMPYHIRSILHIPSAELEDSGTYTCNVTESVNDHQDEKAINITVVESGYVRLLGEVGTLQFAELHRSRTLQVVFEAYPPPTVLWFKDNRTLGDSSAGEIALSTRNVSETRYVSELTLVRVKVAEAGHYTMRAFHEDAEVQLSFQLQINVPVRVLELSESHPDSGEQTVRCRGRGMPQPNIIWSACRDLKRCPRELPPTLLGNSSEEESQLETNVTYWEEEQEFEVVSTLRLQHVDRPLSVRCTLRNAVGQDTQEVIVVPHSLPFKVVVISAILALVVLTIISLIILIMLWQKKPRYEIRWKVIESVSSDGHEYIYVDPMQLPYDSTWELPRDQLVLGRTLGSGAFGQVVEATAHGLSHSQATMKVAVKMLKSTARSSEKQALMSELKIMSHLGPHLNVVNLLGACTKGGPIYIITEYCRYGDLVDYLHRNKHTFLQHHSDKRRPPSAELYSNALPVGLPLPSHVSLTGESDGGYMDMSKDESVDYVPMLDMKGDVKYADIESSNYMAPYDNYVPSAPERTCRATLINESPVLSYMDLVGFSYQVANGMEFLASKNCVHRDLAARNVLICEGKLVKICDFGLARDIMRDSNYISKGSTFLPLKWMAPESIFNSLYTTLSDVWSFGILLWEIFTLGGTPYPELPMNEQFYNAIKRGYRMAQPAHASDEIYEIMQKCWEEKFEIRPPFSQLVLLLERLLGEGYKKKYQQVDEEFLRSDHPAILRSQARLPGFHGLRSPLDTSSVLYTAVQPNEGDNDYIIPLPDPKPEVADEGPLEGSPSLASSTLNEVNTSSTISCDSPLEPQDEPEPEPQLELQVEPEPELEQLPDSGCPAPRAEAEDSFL
Summary of the method: as §1

RIPK1(h) = RIPK1(h) (Homo sapiens, UniProt Q13546)
Chain of RIPK1(h) (Q13546 whole entry): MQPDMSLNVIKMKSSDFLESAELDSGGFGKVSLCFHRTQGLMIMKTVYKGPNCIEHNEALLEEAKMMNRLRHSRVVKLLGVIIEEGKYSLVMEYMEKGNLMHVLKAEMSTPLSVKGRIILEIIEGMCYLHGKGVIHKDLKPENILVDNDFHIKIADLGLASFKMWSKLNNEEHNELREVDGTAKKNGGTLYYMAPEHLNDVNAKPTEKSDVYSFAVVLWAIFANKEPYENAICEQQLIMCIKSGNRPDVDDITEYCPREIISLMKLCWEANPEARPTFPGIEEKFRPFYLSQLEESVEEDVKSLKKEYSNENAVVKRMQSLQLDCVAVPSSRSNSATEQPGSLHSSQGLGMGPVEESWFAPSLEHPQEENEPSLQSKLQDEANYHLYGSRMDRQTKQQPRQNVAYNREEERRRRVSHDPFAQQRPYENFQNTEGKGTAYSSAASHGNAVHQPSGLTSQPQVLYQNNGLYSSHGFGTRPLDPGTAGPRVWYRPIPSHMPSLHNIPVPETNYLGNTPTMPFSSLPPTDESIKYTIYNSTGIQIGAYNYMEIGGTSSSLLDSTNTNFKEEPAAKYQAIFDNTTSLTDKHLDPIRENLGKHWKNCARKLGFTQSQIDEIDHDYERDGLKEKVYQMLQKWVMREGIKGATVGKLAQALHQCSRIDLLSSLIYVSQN
Summary of the method: as §1

MINK(h) = target: T8, MINK(h) (Homo sapiens, UniProt Q8N4C8)
T8 construct: gene MINK1
Summary of the method: as §1

CDKL3(h) = CDKL3(h) (Homo sapiens, UniProt Q8IVW4)
Summary of the method: as §1

cKit(V654A)(h) = target: T9, cKit(V654A)(h) (Homo sapiens, UniProt P10721, V654A)
T9 construct: gene KIT
Summary of the method: as §1

[2] = target: T10, PI3 Kinase (p110(E545K)/p85)(h) (Homo sapiens, UniProt P42336, E545K)
T10 construct: gene PIK3CA
Summary of the method: as §1

cKit(D816V)(h) = target: T11, cKit(D816V)(h) (Homo sapiens, UniProt P10721, D816V)
T11 construct: gene KIT
Summary of the method: as §1

PRK1(h) = target: T12, PRK1(h) (Homo sapiens, UniProt Q16512)
T12 construct: gene PKN1
T12 sequence (Q16512 whole entry): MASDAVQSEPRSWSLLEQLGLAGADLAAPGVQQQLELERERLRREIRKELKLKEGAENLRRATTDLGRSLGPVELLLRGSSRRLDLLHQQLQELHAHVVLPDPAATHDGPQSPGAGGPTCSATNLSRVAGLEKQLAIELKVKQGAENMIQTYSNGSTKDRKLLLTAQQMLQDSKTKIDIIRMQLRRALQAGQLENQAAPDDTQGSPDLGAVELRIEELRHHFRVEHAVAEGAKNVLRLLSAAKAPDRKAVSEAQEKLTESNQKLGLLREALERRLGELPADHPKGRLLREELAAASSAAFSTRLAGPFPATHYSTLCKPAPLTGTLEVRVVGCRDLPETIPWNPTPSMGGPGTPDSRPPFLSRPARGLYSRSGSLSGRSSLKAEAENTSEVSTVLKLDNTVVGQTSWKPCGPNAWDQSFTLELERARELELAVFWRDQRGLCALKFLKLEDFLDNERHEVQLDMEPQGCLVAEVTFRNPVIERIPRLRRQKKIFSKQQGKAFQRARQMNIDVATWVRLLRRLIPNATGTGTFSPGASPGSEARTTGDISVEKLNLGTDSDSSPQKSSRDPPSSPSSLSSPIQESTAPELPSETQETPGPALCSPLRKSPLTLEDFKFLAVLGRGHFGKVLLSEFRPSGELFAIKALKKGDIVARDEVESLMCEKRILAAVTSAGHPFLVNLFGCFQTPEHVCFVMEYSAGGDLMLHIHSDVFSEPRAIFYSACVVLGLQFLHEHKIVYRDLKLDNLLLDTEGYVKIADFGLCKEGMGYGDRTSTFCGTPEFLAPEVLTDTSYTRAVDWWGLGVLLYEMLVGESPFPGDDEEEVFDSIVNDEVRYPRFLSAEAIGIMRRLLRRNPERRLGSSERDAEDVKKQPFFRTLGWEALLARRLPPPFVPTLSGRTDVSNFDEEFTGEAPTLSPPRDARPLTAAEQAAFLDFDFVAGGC
Summary of the method: as §1

Arg(h) = target: T13, Arg(h) (Homo sapiens, UniProt P42684)
T13 construct: gene ABL2
Summary of the method: as §1

CDK17/cyclinY(h) = CDK17/cyclinY(h) (Homo sapiens, UniProt Q00537)
Summary of the method: as §1

TRB2(h) = target: T14, TRB2(h) (Homo sapiens, UniProt Q92519)
T14 construct: gene TRIB2
T14 sequence (Q92519 whole entry): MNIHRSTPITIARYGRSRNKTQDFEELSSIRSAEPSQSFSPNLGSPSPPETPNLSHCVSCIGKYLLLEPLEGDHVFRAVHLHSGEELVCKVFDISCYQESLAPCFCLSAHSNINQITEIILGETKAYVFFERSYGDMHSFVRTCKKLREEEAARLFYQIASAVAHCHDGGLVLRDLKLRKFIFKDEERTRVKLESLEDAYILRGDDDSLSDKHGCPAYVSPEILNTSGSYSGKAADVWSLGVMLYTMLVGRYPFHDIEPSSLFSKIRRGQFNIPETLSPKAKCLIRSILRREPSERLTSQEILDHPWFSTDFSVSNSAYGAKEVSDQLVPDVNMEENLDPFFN
Summary of the method: as §1

C1=C(c2nc(-c3cnn(C4CCNCC4)c3)cn3cc(-c4ccccc4)nc23)CCOC1 [YL-939]
remaining activity at 10 µM (EphA1(h)): 109% | remaining activity at 10 µM (CDK6/cyclinD3(h)): 94% | remaining activity at 10 µM [1]: 99% | remaining activity at 10 µM (SAPK2a(T106M)(h)): 105% | remaining activity at 10 µM (IGF-1R(h), activated): 95% | remaining activity at 10 µM (Pim-2(h)): 84% | remaining activity at 10 µM (FAK(h)): 112% | remaining activity at 10 µM (LKB1(h)): 87% | remaining activity at 10 µM (TYK2(h)): 95% | remaining activity at 10 µM (BrSK1(h)): 91% | remaining activity at 10 µM (Hck(h) activated): 105% | remaining activity at 10 µM (PDGFRβ(h)): 113% | remaining activity at 10 µM (RIPK1(h)): 106% | remaining activity at 10 µM (MINK(h)): 95% | remaining activity at 10 µM (CDKL3(h)): 82% | remaining activity at 10 µM (cKit(V654A)(h)): 92% | remaining activity at 10 µM [2]: 95% | remaining activity at 10 µM (cKit(D816V)(h)): 108% | remaining activity at 10 µM (PRK1(h)): 96% | remaining activity at 10 µM (Arg(h)): 108% | remaining activity at 10 µM (CDK17/cyclinY(h)): 93% | remaining activity at 10 µM (TRB2(h)): 59%
